The compounds below were run against hENPP2 (UniProtKB/SwissProt Sequence ref Q13822) (Homo sapiens (Human), UniProt Q13822) (assay: LPC hENPP2 assay (choline release, LPC as substrate)).
Format: biochemical
Experimental: The principle of the assay consists in quantifying the released choline with an enzymatic method using choline oxidase and peroxidase. Choline oxydation by choline oxydase releases betaine and peroxide. The latter is quantified in presence of HRP that converts the peroxide detection agent TOOS and 4-aminoantipyrine into quinoneimine dye. The appearance of quinoneimine dye is measured spectrophotometrically at 555 nm and is proportional to the amount of choline released by ENPP2. Inhibition of ENPP2 will result in a decrease of the signal.
The reaction is terminated and choline quantified by the addition of a 25 μL of a mixture containing 0.6 U/mL of choline oxidase, 0.6 U/mL of peroxydase, 1.8 mM TOOS, 1.2 mM amino-antipyrine, 20 mM EGTA (stop-developer solution) diluted in the buffer described above. […] is read on the Envision after an incubation of 30 min at room temperature (Excitation 555 nm, excitation light=70%).

**Q.** With `CCc1nc2ccc(N3CCC4(CN(C)C(=O)O4)C3)nn2c1N(C)c1nc(-c2ccc(F)cc2)cs1` (stereo not shown) [Cpd 119, 7-(2-ethyl-3-((4-(4-fluorophenyl)thiazol-2-yl)(methyl)amino)imidazo[1,2-b]pyridazin-6-yl)-3-methyl-1-oxa-3,7-diazaspiro[4.4] nonan-2-one] as the compound, how does the IC50 read?
**A.** 100 to 500 nM

**Q.** For `CCc1nc2ccc(N3CCC4(CN(C)C(=O)O4)C3)nn2c1N(C)c1nc(-c2ccc(F)cc2)c(CO)s1` (stereo not shown) [Cpd 120, 7-(2-ethyl-3-((4-(4-fluorophenyl)-5-(hydroxymethyl)thiazol-2-yl)(methyl)amino)imidazo[1,2-b]pyridazin-6-yl)-3-methyl-1-oxa-3,7-diazaspiro[4.4] nonan-2-one], which IC50 is on record?
**A.** 100 to 500 nM

**Q.** For `CCc1nc2ccc(N3CCC4(CC(=O)NC4=O)C3)nn2c1N(C)c1nc(-c2ccc(F)cc2)cs1` (stereo not shown) [Cpd 121, 7-(2-ethyl-3-((4-(4-fluorophenyl)thiazol-2-yl)(methyl)amino)imidazo[1,2-b]pyridazin-6-yl)-2,7-diazaspiro[4.4] nonane-1,3-dione], which IC50 is on record?
**A.** > 1000 nM

**Q.** For `CCc1nc2ccc(N3CC[C@H](C#N)C3)nn2c1N(C)c1nc(-c2ccc(F)cc2)cs1` [Cpd 128, (S)-1-(2-ethyl-3-((4-(4-fluorophenyl)thiazol-2-yl)(methyl)amino)imidazo[1,2-b]pyridazin-6-yl)pyrrolidine-3-carbonitrile], which IC50 is on record?
**A.** > 1000 nM

**Q.** With `CCc1nc2ccc(N3CCC(NCC(=O)OC)C3)nn2c1N(C)c1nc(-c2ccc(F)cc2)cs1` (stereo not shown) [Cpd 135, methyl 2-(1-(2-ethyl-3-((4-(4-fluorophenyl)thiazol-2-yl)(methyl)amino)imidazo[1,2-b]pyridazin-6-yl)pyrrolidin-3-ylamino)acetate] as the compound, how does the IC50 read?
**A.** 500 to 1000 nM

**Q.** With `CCc1nc2ccc(N3CCC(C(=O)OC)C3)nn2c1N(C)c1nc(-c2ccc(F)cc2)cs1` (stereo not shown) [Cpd 139, 1-(2-Ethyl-3-{[4-(4-fluoro-phenyl)-thiazol-2-yl]-methyl-amino}-imidazo[1,2-b]pyridazin-6-yl)-pyrrolidine-3-carboxylic acid methyl ester] as the compound, how does the IC50 read?
**A.** > 1000 nM

**Q.** How did the IC50 turn out when `CCc1nc2ccc(N3CCC(C(=O)NCCO)C3)nn2c1N(C)c1nc(-c2ccc(F)cc2)cs1` (stereo not shown) [Cpd 140, 1-(2-ethyl-3-((4-(4-fluorophenyl)thiazol-2-yl)(methyl)amino)imidazo[1,2-b]pyridazin-6-yl)-N-(2-hydroxyethyl) pyrrolidine-3-carboxamide] was run?
**A.** > 1000 nM

**Q.** Which IC50 does the source give for `CCc1nc2ccc(N3CCC(C(=O)N4CCOCC4)C3)nn2c1N(C)c1nc(-c2ccc(F)cc2)cs1` (stereo not shown) [Cpd 141, (1-(2-ethyl-3-((4-(4-fluorophenyl)thiazol-2-yl)(methyl)amino)imidazo[1,2-b]pyridazin-6-yl)pyrrolidin-3-yl)(morpholino) methanone] here?
**A.** > 1000 nM

**Q.** Which IC50 does the source give for `CCc1nc2ccc(N3CCC(N4CCNC(=O)C4)C3)nn2c1N(C)c1nc(-c2ccc(F)cc2)cs1` (stereo not shown) [Cpd 146, 4-(1-(2-ethyl-3-((4-(4-fluorophenyl)thiazol-2-yl)(methyl)amino)imidazo[1,2-b]pyridazin-6-yl)pyrrolidin-3-yl)piperazin-2-one] here?
**A.** 500 to 1000 nM

**Q.** For `CCc1nc2ccc(N3CCC(N4CCOCC4)C3)nn2c1N(C)c1nc(-c2ccc(F)cc2)c(CO)s1` (stereo not shown) [Cpd 148, (2-((2-ethyl-6-(3-morpholino-pyrrolidin-1-yl)imidazo[1,2-b]pyridazin-3-yl)(methyl)amino)-4-(4-fluorophenyl)thiazol-5-yl) methanol], which IC50 is on record?
**A.** 500 to 1000 nM

**Q.** How did the IC50 turn out when `CCc1nc2ccc(N3CC(CO)C3)nn2c1N(C)c1nc(-c2ccc(F)cc2)cs1` [Cpd 153, (1-(2-ethyl-3-((4-(4-fluorophenyl)thiazol-2-yl)(methyl)amino)imidazo[1,2-b]pyridazin-6-yl)azetidin-3-yl)methanol] was run?
**A.** > 1000 nM

**Q.** With `CCc1nc2ccc(N3CC(NCC(=O)N4CC(O)C4)C3)nn2c1N(C)c1nc(-c2ccc(F)cc2)cs1` [Cpd 155, 2-(1-(2-ethyl-3-((4-(4-fluorophenyl)thiazol-2-yl)(methyl)amino)imidazo[1,2-b]pyridazin-6-yl)azetidin-3-ylamino)-1-(3-hydroxyazetidin-1-yl)ethanone] as the compound, how does the IC50 read?
**A.** 100 to 500 nM

**Q.** How did the IC50 turn out when `CCc1nc2ccc(N3CC(NCC(=O)N(C)C)C3)nn2c1N(C)c1nc(-c2ccc(F)cc2)cs1` [Cpd 156, 2-(1-(2-ethyl-3-((4-(4-fluorophenyl)thiazol-2-yl)(methyl)amino)imidazo[1,2-b]pyridazin-6-yl)azetidin-3-ylamino)-N,N-dimethylacetamide] was run?
**A.** 500 to 1000 nM

**Q.** `CCc1nc2ccc(N3CC(NCC(=O)NC)C3)nn2c1N(C)c1nc(-c2ccc(F)cc2)cs1` [Cpd 157, 2-(1-(2-ethyl-3-((4-(4-fluorophenyl)thiazol-2-yl)(methyl)amino)imidazo[1,2-b]pyridazin-6-yl)azetidin-3-ylamino)-N-methylacetamide] was tested. Which IC50 did it give?
**A.** 500 to 1000 nM

**Q.** `CCc1nc2ccc(N3CC(NS(C)(=O)=O)C3)nn2c1N(C)c1nc(-c2ccc(F)cc2)cs1` [Cpd 158, N-(1-(2-ethyl-3-((4-(4-fluorophenyl)thiazol-2-yl)(methyl)amino)imidazo[1,2-b]pyridazin-6-yl)azetidin-3-yl)methane-sulfonamide] was tested. Which IC50 did it give?
**A.** 500 to 1000 nM

**Q.** `CCc1nc2ccc(N3CC(C(=O)N4CCC(O)C4)C3)nn2c1N(C)c1nc(-c2ccc(F)cc2)cs1` (stereo not shown) [Cpd 159, (1-(2-ethyl-3-((4-(4-fluorophenyl)thiazol-2-yl)(methyl)amino)imidazo[1,2-b]pyridazin-6-yl)azetidin-3-yl)(3-hydroxypyrrolidin-1-yl)methanone] was tested. Which IC50 did it give?
**A.** > 1000 nM

**Q.** Which IC50 does the source give for `CCc1nc2ccc(N3CCN(CC4CNC(=O)O4)CC3)nn2c1N(C)c1nc(-c2ccc(F)cc2)c(C#N)s1` (stereo not shown) [Cpd 160, 2-((2-ethyl-6-(4-((2-oxooxazolidin-5-yl)methyl)piperazin-1-yl)imidazo[1,2-b]pyridazin-3-yl)(methyl)amino)-4-(4-fluorophenyl) thiazole-5-carbonitrile] here?
**A.** 0.01 to 100 nM

**Q.** For `CCc1nc2ccc(N3CCN(S(C)(=O)=O)[C@H](CO)C3)nn2c1N(C)c1nc(-c2ccc(F)cc2)c(C#N)s1` [Cpd 161, (S)-2-((2-ethyl-6-(3-(hydroxymethyl)-4-(methylsulfonyl)piperazin-1-yl)imidazo[1,2-b]pyridazin-3-yl)(methyl)amino)-4-(4-fluorophenyl) thiazole-5-carbonitrile], which IC50 is on record?
**A.** 100 to 500 nM

**Q.** `CCc1nc2ccc(N3CCCC4(CNC(=O)O4)C3)nn2c1N(C)c1nc(-c2ccc(F)cc2)c(C#N)s1` (stereo not shown) [Cpd 162, 2-((2-ethyl-6-(2-oxo-1-oxa-3,7-diazaspiro[4.5]decan-7-yl)imidazo [1,2-b]pyridazin-3-yl)(methyl)amino)-4-(4-fluorophenyl) thiazole-5-carbonitrile] was tested. Which IC50 did it give?
**A.** 100 to 500 nM

**Q.** With `CCc1nc2ccc(N3CCCC4(CN(C)C(=O)O4)C3)nn2c1N(C)c1nc(-c2ccc(F)cc2)c(C#N)s1` (stereo not shown) [Cpd 163, 2-((2-ethyl-6-(3-methyl-2-oxo-1-oxa-3,7-diazaspiro[4.5]decan-7-yl)imidazo [1,2-b]pyridazin-3-yl)(methyl)amino)-4-(4-fluorophenyl) thiazole-5-carbonitrile] as the compound, how does the IC50 read?
**A.** > 1000 nM

**Q.** Which IC50 does the source give for `CCc1nc2ccc(N3CCC4(CN(C)C(=O)O4)C3)nn2c1N(C)c1nc(-c2ccc(F)cc2)c(C#N)s1` (stereo not shown) [Cpd 164, 2-((2-ethyl-6-(3-methyl-2-oxo-1-oxa-3,7-diazaspiro[4.4]nonan-7-yl)imidazo[1,2-b]pyridazin-3-yl)(methyl)amino)-4-(4-fluorophenyl) thiazole-5-carbonitrile] here?
**A.** 100 to 500 nM

**Q.** `CCc1nc2ccc(N3CCC4(CCN(C(=O)OC(C)(C)C)C4)C3)nn2c1N(C)c1nc(-c2ccc(F)cc2)c(C#N)s1` (stereo not shown) [Cpd 165, tert-butyl 7-(3-((5-cyano-4-(4-fluorophenyl)thiazol-2-yl)(methyl)amino)-2-ethylimidazo[1,2-b]pyridazin-6-yl)-2,7-diazaspiro[4.4] nonane-2-carboxylate] was tested. Which IC50 did it give?
**A.** 100 to 500 nM

**Q.** Which IC50 does the source give for `CCc1nc2ccc(N3CCC4(CCNC4)C3)nn2c1N(C)c1nc(-c2ccc(F)cc2)c(C#N)s1` (stereo not shown) [Cpd 166, 2-((2-ethyl-6-(2,7-diazaspiro[4.4]nonan-2-yl)imidazo[1,2-b]pyridazin-3-yl)(methyl)amino)-4-(4-fluorophenyl) thiazole-5-carbonitrile] here?
**A.** 100 to 500 nM

**Q.** For `CCc1nc2ccc(N3CCC4(CCN(C(C)=O)C4)C3)nn2c1N(C)c1nc(-c2ccc(F)cc2)c(C#N)s1` (stereo not shown) [Cpd 167, 2-((6-(7-acetoyl-2,7-diazaspiro[4.4]nonan-2-yl)-2-ethylimidazo[1,2-b]pyridazin-3-yl)(methyl)amino)-4-(4-fluorophenyl) thiazole-5-carbonitrile], which IC50 is on record?
**A.** 0.01 to 100 nM

**Q.** With `CCc1nc2ccc(N3CCC(O)(CNC(=O)OC)C3)nn2c1N(C)c1nc(-c2ccc(F)cc2)c(C#N)s1` (stereo not shown) [Cpd 168, methyl (1-(3-((5-cyano-4-(4-fluorophenyl)thiazol-2-yl)(methyl)amino)-2-ethylimidazo[1,2-b]pyridazin-6-yl)-3-hydroxypyrrolidin-3-yl)] as the compound, how does the IC50 read?
**A.** 0.01 to 100 nM

**Q.** For `CCc1nc2ccc(N3CCC(O)(CNC(C)=O)C3)nn2c1N(C)c1nc(-c2ccc(F)cc2)c(C#N)s1` (stereo not shown) [Cpd 169, N-((1-(3-((5-cyano-4-(4-fluorophenyl)thiazol-2-yl)(methyl)amino)-2-ethylimidazo[1,2-b]pyridazin-6-yl)-3-hydroxypyrrolidin-3-yl)methyl)acetamide], which IC50 is on record?
**A.** 0.01 to 100 nM

**Q.** Which IC50 does the source give for `CCc1nc2ccc(N3CCC(O)(CNC(=O)C(C)C)C3)nn2c1N(C)c1nc(-c2ccc(F)cc2)c(C#N)s1` (stereo not shown) [Cpd 170, N-((1-(3-((5-cyano-4-(4-fluorophenyl)thiazol-2-yl)(methyl)amino)-2-ethylimidazo[1,2-b]pyridazin-6-yl)-3-hydroxypyrrolidin-3-yl)methyl) isobutyramide] here?
**A.** 100 to 500 nM

**Q.** How did the IC50 turn out when `CCc1nc2ccc(N3CCC(CO)C3)nn2c1N(C)c1nc(-c2ccc(F)cc2)c(C#N)s1` (stereo not shown) [Cpd 173, 2-((2-ethyl-6-(3-(hydroxymethyl)pyrrolidin-1-yl)imidazo[1,2-b]pyridazin-3-yl)(methyl)amino)-4-(4-fluorophenyl) thiazole-5-carbonitrile] was run?
**A.** 100 to 500 nM

— patent publication US9796719B2, “Compounds and pharmaceutical compositions thereof for the treatment of inflammatory disorders” (GALAPAGOS NV, priority 2013, dated 2017)
